Data reported in patent US9999636B2, “Insulin-mimetics as therapeutic adjuncts for bone regeneration” (Rutgers, The State University of New Jersey, priority 2010, dated 2018).
Marks after values point to notes of the source that are not given here.

Assays:
[1] = system: posterolateral intertransverse lumbar fusion L4-L5; experiment: Radiographic grading of posterolateral lumbar spinal fusion; format: in vivo, Sprague-Dawley rat; conditions: n = 10, eight weeks
[2] = system: closed mid-diaphyseal femur fracture; conditions: four weeks post-fracture
Description: X-rays are taken at two-week intervals to the day of euthanasia. After euthanasia x-rays are taken as well. To take x-rays, animals will be given a half dose of anesthesia. All groups will be monitored closely for four days after surgery for infection, and the ability to ambulate freely.

[3] = system: closed mid-diaphyseal femur fracture; experiment: Torsional mechanical testing of fractured femora, local ZnCl2 with or without CaSO4 carrier; format: in vivo, BB Wistar rat; design: Percent Effective Shear Stress: scale not given: direction of the effect not stated beside the values; conditions: for mode of torsional failure: femurs harvested 4 weeks post-surgery (FIG. 2)
Description: In addition to the biomechanical parameters determined through torsional testing, the mode of failure can also provide substantial information. The mode of torsional failure as determined by gross inspection provided an indication as to the extent of healing. A spiral failure in the mid-diaphyseal region indicated a complete union while a transverse failure through the fracture site indicated a nonunion. A combination spiral/transverse failure indicated a partial union (FIG. 2).
To prepare the ZnCl2/CaSO4 mixture, CaSO4 (2 g) were placed in glass vials. The vials were placed in an autoclave and sterilized […] in a dry cycle. CaSO4 powder (0.8 g) was mixed with 400 μl of saline or 400 μl of ZnCl2 solution (1.0 mg/kg) for one minute at room temperature. The mixture was packed into the barrel of a 1 cc sterile syringe and pushed down into the open orifice of the syringe barrel by insertion of the syringe plunger. After attaching an 18-gauge sterile needle to the syringe barrel, 0.1 ml volume of the mixture was directly injected into the rat femoral canal (non-diabetic BB Wistar rat) prior to Kirschner wire insertion and fracture.

[4] = 10.0 mg/kg local, no carrier
Description: Diabetic Resistance (DR) BB Wistar rats used in the study were obtained from a breeding colony at UMDNJ-New Jersey Medical School (NJMS). The rats were housed under controlled environmental conditions and fed ad libitum. All research protocols were approved by the Institutional Animal Care and Use Committee at University of Medicine and Dentistry of New Jersey-New Jersey Medical School.
Doses of ZnCl2 were not based on each animal's body weight, but on a lower theoretically tolerable dose for a 290-gram BB Wistar rat, which would not elicit heavy metal poisoning or behavioral changes. This weight is over 50 grams lower than the average weight of non-diabetic BB Wistar rats at an age of approximately 90 days (the age of investigation in this study). A 0.1 ml volume of the ZnCl2 solution was administered locally via a single injection into the marrow space for each dose examined.

[5] = high dose 1.0 mg/kg Calcium Sulfate pellet, 1 mg/kg
[6] = low dose 0.5 mg/kg Calcium Sulfate pellet, listed as zinc, 0.5 mg/kg

[Zn] [Zn]
Radiographs: number graded A = solid fusion mass bilaterally [1, 5]: 7
Radiographs: number graded D = Graft resorption [1, 5]: 0
Radiographs: number graded A = solid fusion mass bilaterally [1, 6]: 7/10
Radiographs: number graded D = Graft resorption [1, 6]: 0/10

manganese chloride [MnCl2]
mineralized tissue on radiographs ([2]; 0.25 mg/kg, vs saline controls): increased mineralized tissue
union on radiographs ([2]; saline control had no evidence of union): demonstrated union at the subperiosteal bony area and at the callus

[Cl-].[Cl-].[Zn+2] [ZnCl2, Zinc chloride]
mode of torsional failure ([3]; 1.0 mg/kg): spiral fracture indicative of healing
mode of torsional failure ([3]; 3.0 mg/kg): spiral fracture indicative of healing
Percent Effective Shear Stress ([3]; 10.0 mg/kg, no carrier, 4 weeks post-fracture, normalized to contralateral (intact) femur): 27 ± 11%
time in which fracture healing resolved ([3]; applied directly to fracture site, instead of average eight to ten weeks in standard rat femur fracture model): four to five weeks
Blood Glucose 12 Hours Post-Surgery [4]: 87.7 ± 8.5 ^a mg/dl
